Measurements: ChEMBL document CHEMBL5032536, “Synthesis and Cytotoxic Activity of Lepidilines A-D: Comparison with Some 4,5-Diphenyl Analogues and Related Imidazole-2-thiones” (J Nat Prod, 2021)

Assays:
[1] = Selectivity ratio of IC50 for cytotoxicity against HUVEC cells to IC50 for cytotoxicity against human HL-60 cells; assay type: toxicity, cell-based; details: HUVEC cells versus HL-60 cells, read-out: Ratio IC50
[2] = Selectivity ratio of IC50 for cytotoxicity against human MCF7 cells to IC50 for cytotoxicity against human HL-60 cells; assay type: toxicity, cell-based; details: MCF7 cells versus HL-60 cells, read-out: Ratio IC50

**Q.** What does the source list for `COc1cccc(Cn2c(C)c(C)[n+](Cc3ccccc3)c2C)c1`?
**A.** selectivity ratio [1]: > 100; selectivity ratio [2]: > 100
